Measured values from patent US4476120A, “Thiolic derivatives of erythromycin having therapeutic activity, and pharmaceutical compositions containing them” (Sigma Tau Indistrie Farmaceutiche Riunites, p.A, priority 1982, dated 1984).
Values after ≈ are worked out from the molar mass of the structure shown.

Legend:
[1] = tested on: Strept. faecalis SS 19; type: cell-based; details: Brain Heart Infusion, estolate and RV11-RV15 previously hydrolized, unit assumed
[2] = tested on: Citrobacter SS 05; type: cell-based; details: Brain Heart Infusion, estolate and RV11-RV15 previously hydrolized, unit assumed
[3] = tested on: S. lutea ATCC 9341; type: cell-based; details: Brain Heart Infusion, estolate and RV11-RV15 previously hydrolized, unit assumed
[4] = Hematic levels in the rat (absorption by oral route); details: 100 mg/kg as erythromycin, average, 100 mg/kg
[5] = tested on: Br. abortus SS 7; type: cell-based; details: Brain Heart Infusion, estolate and RV11-RV15 previously hydrolized, unit assumed
[6] = tested on: Staph. aureus SS 09; type: cell-based; details: Brain Heart Infusion, estolate and RV11-RV15 previously hydrolized, unit assumed
[7] = tested on: S. heidelberg SS 18; type: cell-based; details: Brain Heart Infusion, estolate and RV11-RV15 previously hydrolized, unit assumed
[8] = tested on: Staph. albus SS 03; type: cell-based; details: Brain Heart Infusion, estolate and RV11-RV15 previously hydrolized, unit assumed
[9] = tested on: Strept. haemolyticus SS 17; type: cell-based; details: Brain Heart Infusion, estolate and RV11-RV15 previously hydrolized, unit assumed
[10] = tested on: Br. melitensis SS 19; type: cell-based; details: unit assumed
[11] = tested on: Strept. haemolyticus SS 18; type: cell-based; details: Brain Heart Infusion, estolate and RV11-RV15 previously hydrolized, unit assumed
[12] = tested on: B. subtilis SS 127; type: cell-based; details: Brain Heart Infusion, estolate and RV11-RV15 previously hydrolized, unit assumed
[13] = tested on: B. subtilis ATCC 6633; type: cell-based; details: Brain Heart Infusion, estolate and RV11-RV15 previously hydrolized, unit assumed
[14] = tested on: D. pneumoniae SS 23; experiment: Experimental infection induced by D. pneumoniae SS 23; type: in vivo, Swiss white mice; details: Streptococcus pneumoniae, SS23, in Mus musculus, po, 168 h, os; D. pneumoniae SS 23; mg/kg of erythromycin; survival after 7 days; read-out: ED50 (reliability limits)
Protocol: (§1) Swiss white mice of 20 g body weight were used, infected by parenteral administration of lethal amounts of pathogenic […] of Staph. aureus SS 07 and D. pneumoniae SS 23.
(§2) The antibiotics were administered at the time of injecting the infecting germ and 6 and 24 hours later. On the basis of the survival after 7 days, the ED50 values were determined, as reported in the following table II and III, wherein the reliability limits are indicated in brackets.

[15] = tested on: Kl. pneumoniae SS 04; type: cell-based; details: Brain Heart Infusion, estolate and RV11-RV15 previously hydrolized, unit assumed
Source text: (§3) In the following table I the MIC/ml values are indicated corresponding to the lowest concentration capable of inducing a complete inhibition of the bacterial development.

[16] = tested on: H. tubercolosis SS 03; type: cell-based; details: Brain Heart Infusion, estolate and RV11-RV15 previously hydrolized, unit assumed
Source text: as §3

[17] = Acute toxicity; type: in vivo; details: mouse, in vivo, po; os; mortality 10 days after treatment; mice; read-out: LD50 (reliability limits)
Protocol: The acute toxicity was assessed in Swiss white mice by oral and intravenous route. The LD50 values have been calculated by the methods of Probits, starting from the mortality recorded 10 days after the treatment.

[18] = tested on: Pr. vulgaris SS 10; type: cell-based; details: Brain Heart Infusion, estolate and RV11-RV15 previously hydrolized, unit assumed
[19] = tested on: Staph. aureus SS 08; type: cell-based; details: Brain Heart Infusion, estolate and RV11-RV15 previously hydrolized, unit assumed
[20] = tested on: B. cereus ATCC 11778; type: cell-based; details: Brain Heart Infusion, estolate and RV11-RV15 previously hydrolized, unit assumed
[21] = tested on: S. infantis SS 08; type: cell-based; details: Brain Heart Infusion, estolate and RV11-RV15 previously hydrolized, unit assumed
[22] = tested on: E. aerogenes SS 011; type: cell-based; details: Brain Heart Infusion, estolate and RV11-RV15 previously hydrolized, unit assumed
[23] = tested on: Sr. marcescens SS 03; type: cell-based; details: Brain Heart Infusion, estolate and RV11-RV15 previously hydrolized, unit assumed
[24] = tested on: H. pertussis SS 03; type: cell-based; details: Brain Heart Infusion, estolate and RV11-RV15 previously hydrolized, unit assumed
[25] = tested on: B. anthranis SS 08; type: cell-based; details: Brain Heart Infusion, estolate and RV11-RV15 previously hydrolized, unit assumed
[26] = tested on: Staph. aureus SS 07; type: cell-based; details: Brain Heart Infusion, estolate and RV11-RV15 previously hydrolized, unit assumed
[27] = tested on: H. influentiae SS 02; type: cell-based; details: Brain Heart Infusion, estolate and RV11-RV15 previously hydrolized, unit assumed
[28] = tested on: Staph. aureus SS 10; type: cell-based; details: Brain Heart Infusion, estolate and RV11-RV15 previously hydrolized, unit assumed
[29] = tested on: Kl. aerogenes SS 71; type: cell-based; details: Brain Heart Infusion, estolate and RV11-RV15 previously hydrolized, unit assumed
[30] = tested on: E. coli SS 06; type: cell-based; details: Brain Heart Infusion, estolate and RV11-RV15 previously hydrolized, unit assumed
[31] = tested on: Citrobacter SS 09; type: cell-based; details: Brain Heart Infusion, estolate and RV11-RV15 previously hydrolized, unit assumed
[32] = tested on: D. pneumoniae SS 23; type: cell-based; details: Brain Heart Infusion, estolate and RV11-RV15 previously hydrolized, unit assumed
[33] = tested on: E. coli SS 04; type: cell-based; details: Brain Heart Infusion, estolate and RV11-RV15 previously hydrolized, unit assumed
[34] = tested on: C. albicans SS 04; type: cell-based; details: Brain Heart Infusion, estolate and RV11-RV15 previously hydrolized, unit assumed
[35] = tested on: N. meningitidis SS 04; type: cell-based; details: Brain Heart Infusion, estolate and RV11-RV15 previously hydrolized, unit assumed
[36] = tested on: N. gonorreae SS 27; type: cell-based; details: Brain Heart Infusion, estolate and RV11-RV15 previously hydrolized, unit assumed
[37] = tested on: C. diphtheriae SS 19; type: cell-based; details: Brain Heart Infusion, estolate and RV11-RV15 previously hydrolized, unit assumed
[38] = tested on: Staph. albus SS 04; type: cell-based; details: Brain Heart Infusion, estolate and RV11-RV15 previously hydrolized, unit assumed
[39] = tested on: E. coli SS 07; type: cell-based; details: Brain Heart Infusion, estolate and RV11-RV15 previously hydrolized, unit assumed
[40] = tested on: Ps. aeruginosa SS 10; type: cell-based; details: Brain Heart Infusion, estolate and RV11-RV15 previously hydrolized, unit assumed
[41] = tested on: Cl. tetani SS 17; type: cell-based; details: Brain Heart Infusion, estolate and RV11-RV15 previously hydrolized, unit assumed
[42] = tested on: E. coli SS 05; type: cell-based; details: Brain Heart Infusion, estolate and RV11-RV15 previously hydrolized, unit assumed
[43] = tested on: B. anthranis SS 09; type: cell-based; details: B. anthranis SS 09 (14 bis); Brain Heart Infusion; estolate and RV11-RV15 previously hydrolized; unit assumed
[44] = tested on: Pr. mirabilis SS 09; type: cell-based; details: Brain Heart Infusion, estolate and RV11-RV15 previously hydrolized, unit assumed
[45] = tested on: Staph. aureus SS 07; experiment: Experimental infection induced by Staph. aureus SS 07; type: in vivo, Swiss white mice; details: Staphylococcus aureus, SS07, in Mus musculus, po, 168 h, os; Staph. aureus SS 07; mg/kg of erythromycin; survival after 7 days; read-out: ED50 (reliability limits)
Protocol: as §1, §2

[46] = tested on: E. cloacae SS 07; type: cell-based; details: Brain Heart Infusion, estolate and RV11-RV15 previously hydrolized, unit assumed

## CC[C@H]1OC(=O)[C@H](C)[C@@H](O[C@H]2C[C@@](C)(OC)[C@@H](O)[C@H](C)O2)[C@H](C)[C@@H](O[C@@H]2O[C@H](C)C[C@H](N(C)C)[C@H]2O)[C@](C)(O)C[C@@H](C)C(=O)[C@H](C)[C@@H](O)[C@]1(C)O [erythromycin]
[1]
  MIC: 0.1 µg/mL (≈ 0.136 µM)
[2]
  MIC: > 200 µg/mL
[3]
  MIC: 0.01 µg/mL (≈ 0.0136 µM)
[4]; 2 hours, 120 min
  Hematic levels in the rat: 1.15 µg/mL
[4]; 6 hours, 360 min
  Hematic levels in the rat: 0.03 µg/mL
[4]; rat, blood, po, Hematic levels in the rat, 0.30 hours
  concentration at 0.3 h: 710 ng/mL
[4]; rat, blood, po, Hematic levels in the rat, 1 hour
  concentration at 1 h: 1030 ng/mL
[4]; rat, blood, po, Hematic levels in the rat, 3 hours
  concentration at 3 h: 1050 ng/mL
[4]; rat, blood, po, Hematic levels in the rat, 4 hours
  concentration at 4 h: 370 ng/mL
[4]; rat, blood, po, Hematic levels in the rat, 5 hours
  concentration at 5 h: 260 ng/mL
[5]
  MIC: 12 µg/mL (≈ 16.4 µM)
[6]
  MIC: 0.1 µg/mL (≈ 0.136 µM)
[7]
  MIC: 100 µg/mL (≈ 136 µM)
[8]
  MIC: 0.05 µg/mL (≈ 0.0681 µM)
[9]
  MIC: 3 µg/mL (≈ 4.09 µM)
[10]
  MIC: 3 µg/mL (≈ 4.09 µM)
[11]
  MIC: 1.5 µg/mL (≈ 2.04 µM)
[12]
  MIC: 0.05 µg/mL (≈ 0.0681 µM)
[13]
  MIC: 0.025 µg/mL (≈ 0.0341 µM)
[14]
  ED50: 114 mg/kg
[15]
  MIC: 100 µg/mL (≈ 136 µM)
[16]
  MIC: 50 µg/mL (≈ 68.1 µM)
[17]
  LD50 at 240 h: > 3000 mg/kg
[18]
  MIC: > 200 µg/mL
[19]
  MIC: 0.025 µg/mL (≈ 0.0341 µM)
[20]
  MIC: 0.4 µg/mL (≈ 0.545 µM)
[21]
  MIC: 100 µg/mL (≈ 136 µM)
[22]
  MIC: 100 µg/mL (≈ 136 µM)
[23]
  MIC: 200 µg/mL (≈ 273 µM)
[24]
  MIC: 0.4 µg/mL (≈ 0.545 µM)
[25]
  MIC: 0.4 µg/mL (≈ 0.545 µM)
[26]
  MIC: 0.025 µg/mL (≈ 0.0341 µM)
[27]
  MIC: 1.5 µg/mL (≈ 2.04 µM)
[28]
  MIC: 0.1 µg/mL (≈ 0.136 µM)
[29]
  MIC: 50 µg/mL (≈ 68.1 µM)
[30]
  MIC: 100 µg/mL (≈ 136 µM)
[31]
  MIC: > 200 µg/mL
[32]
  MIC: 0.05 µg/mL (≈ 0.0681 µM)
[33]
  MIC: 100 µg/mL (≈ 136 µM)
[34]
  MIC: 100 µg/mL (≈ 136 µM)
[35]
  MIC: 0.8 µg/mL (≈ 1.09 µM)
[36]
  MIC: 0.8 µg/mL (≈ 1.09 µM)
[37]
  MIC: 0.01 µg/mL (≈ 0.0136 µM)
[38]
  MIC: 0.05 µg/mL (≈ 0.0681 µM)
[39]
  MIC: 50 µg/mL (≈ 68.1 µM)
[40]
  MIC: 100 µg/mL (≈ 136 µM)
[41]
  MIC: 0.4 µg/mL (≈ 0.545 µM)
[42]
  MIC: 50 µg/mL (≈ 68.1 µM)
[43]
  MIC: 0.4 µg/mL (≈ 0.545 µM)
[44]
  MIC: > 200 µg/mL
[45]
  ED50: 2.09 mg/kg
[46]
  MIC: > 200 µg/mL
